The compounds below were run against T1, human FXR (Homo sapiens, UniProt Q96RI1) (assay: transient human FXR/Gal4-luciferase reporter assay). Conditions: Gal4-hFXR LBD fusion, luciferase reporter in HEK293 cells; response relative to 8 μM GW-4064.
T1 construct: expressed in transfected cells; host or cells: HEK293 cells stably carrying a 5xGal4-response-element firefly luciferase reporter, transiently transfected with pcDNA3.1-Gal4-FXR
T1 sequence (Q96RI1 262-486 limits assumed): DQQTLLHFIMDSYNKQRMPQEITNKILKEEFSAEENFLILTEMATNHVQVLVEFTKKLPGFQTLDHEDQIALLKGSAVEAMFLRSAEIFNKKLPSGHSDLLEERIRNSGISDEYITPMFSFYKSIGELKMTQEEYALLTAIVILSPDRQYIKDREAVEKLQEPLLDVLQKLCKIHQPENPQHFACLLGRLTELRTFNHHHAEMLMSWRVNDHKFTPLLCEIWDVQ
Assay type: cell-based
Summary of the method: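 HEK293 cells stably carrying a 5×Gal4-response-element firefly luciferase reporter were transiently transfected with Gal4-hFXR. They were then incubated overnight at 37 °C with compound serial dilutions in medium containing 10% charcoal/dextran-stripped FBS. Luminescence was read after Steady-Glo addition.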

Row | EC50 [nM] | SMILES
1 | 665 | CCOc1ccc(-c2cccc(N(CC34CCC(c5noc(C(C)(F)F)n5)(CC3)CC4)C(=O)C3CCC(F)(F)CC3)c2)cc1 [Example 113, N-((4-(5-(1,1-difluoroethyl)-1,2,4-oxadiazol-3-yl)bicyclo[2.2.2]octan-1-yl)methyl)-N-(4′-ethoxy-[1,1′-biphenyl]-3-yl)-4,4-difluorocyclohexane-1-carboxamide]
2 | 325 | CC(C)(C)c1noc(C23CCC(CN(C(=O)C4CCC(F)(F)CC4)c4cc(F)cc(-c5nc(C6CC6)no5)c4)(CC2)CC3)n1 [Example 114, N-((4-(3-(tert-butyl)-1,2,4-oxadiazol-5-yl)bicyclo[2.2.2]octan-1-yl)methyl)-N-(3-(3-cyclopropyl-1,2,4-oxadiazol-5-yl)-5-fluorophenyl)-4,4-difluorocyclohexane-1-carboxamide]
3 | 83 | CC(C)(C)c1noc(C23CCC(CN(C(=O)C4CCOCC4)c4cc(F)cc(-c5nc(C6CC6)no5)c4)(CC2)CC3)n1 [Example 115, N-((4-(3-(tert-butyl)-1,2,4-oxadiazol-5-yl)bicyclo[2.2.2]octan-1-yl)methyl)-N-(3-(3-cyclopropyl-1,2,4-oxadiazol-5-yl)-5-fluorophenyl)tetrahydro-2H-pyran-4-carboxamide]
4 | 61 | CC(C)(C)c1nc(C23CCC(CN(C(=O)C4CCOCC4)c4cccc(-c5nc(C6CC6)no5)c4)(CC2)CC3)no1 [Example 116, N-((4-(5-(tert-butyl)-1,2,4-oxadiazol-3-yl)bicyclo[2.2.2]octan-1-yl)methyl)-N-(3-(3-cyclopropyl-1,2,4-oxadiazol-5-yl)phenyl)tetrahydro-2H-pyran-4-carboxamide]
5 | 729 | CC(C)(C)c1nc(C23CCC(CN(C(=O)C4CCS(=O)(=O)CC4)c4cccc(-c5nc(C6CC6)no5)c4)(CC2)CC3)no1 [Example 117, N-((4-(5-(tert-butyl)-1,2,4-oxadiazol-3-yl)bicyclo[2.2.2]octan-1-yl)methyl)-N-(3-(3-cyclopropyl-1,2,4-oxadiazol-5-yl)phenyl)tetrahydro-2H-thiopyran-4-carboxamide 1,1-dioxide]
6 | 1950 | CN1CCC(C(=O)N(CC23CCC(c4noc(C(C)(C)C)n4)(CC2)CC3)c2cccc(-c3nc(C4CC4)no3)c2)CC1 [Example 118, N-((4-(5-(tert-butyl)-1,2,4-oxadiazol-3-yl)bicyclo[2.2.2]octan-1-yl)methyl)-N-(3-(3-cyclopropyl-1,2,4-oxadiazol-5-yl)phenyl)-1-methylpiperidine-4-carboxamide]
7 | 290 | O=C(C1CCC(F)(F)CC1)N(CC12CCC(c3noc(C(F)(F)F)n3)(CC1)CC2)c1cccc(-c2cnc(C3CC3)nc2)c1 [Example 119, N-(3-(2-cyclopropylpyrimidin-5-yl)phenyl)-4,4-difluoro-N-((4-(5-(trifluoromethyl)-1,2,4-oxadiazol-3-yl)bicyclo[2.2.2]octan-1-yl)methyl)cyclohexane-1-carboxamide]
8 | 2000 | O=C(C1CCC(F)(F)CC1)N(CC12CCC(c3noc(C4CC(O)(C(F)(F)F)C4)n3)(CC1)CC2)c1cccc(-c2cnc(C3CC3)nc2)c1 (centres unmarked) [Example 120, N-(3-(2-cyclopropylpyrimidin-5-yl)phenyl)-4,4-difluoro-N-((4-(5-(3-hydroxy-3-(trifluoromethyl)cyclobutyl)-1,2,4-oxadiazol-3-yl)bicyclo[2.2.2]octan-1-yl)methyl)cyclohexane-1-carboxamide]
9 | 1320 | CC(F)(F)c1nc(C23CCC(CN(C(=O)C4CCOCC4)c4ccc(F)c(-c5ccc(P(C)(C)=O)cc5)c4)(CC2)CC3)no1 [Example 122, N-((4-(5-(1,1-difluoroethyl)-1,2,4-oxadiazol-3-yl)bicyclo[2.2.2]octan-1-yl)methyl)-N-(4′-(dimethylphosphoryl)-6-fluoro-[1,1′-biphenyl]-3-yl)tetrahydro-2H-pyran-4-carboxamide]
10 | 280 | CC(C)(C)c1nnc(C23CCC(CN(C(=O)C4CCC(F)(F)CC4)c4cccc(-c5nc(C6CC6)no5)c4)(CC2)CC3)o1 [Example 123, N-((4-(5-(tert-Butyl)-1,3,4-oxadiazol-2-yl)bicyclo[2.2.2]octan-1-yl)methyl)-N-(3-(3-cyclopropyl-1,2,4-oxadiazol-5-yl)phenyl)-4,4-difluorocyclohexane-1-carboxamide]
11 | 467 | CC(C)(C)c1nnc(C23CCC(CN(C(=O)C4CCC(F)(F)CC4)c4cccc(-c5cc(C6CC6)on5)c4)(CC2)CC3)o1 [Example 124, N-((4-(5-(tert-Butyl)-1,3,4-oxadiazol-2-yl)bicyclo[2.2.2]octan-1-yl)methyl)-N-(3-(5-cyclopropylisoxazol-3-yl)phenyl)-4,4-difluorocyclohexane-1-carboxamide]
12 | 726 | CCOc1ncc(-c2cccc(N(CC34CCC(c5nc(C(C)(C)C)no5)(CC3)CC4)C(=O)c3cc(Cl)cc(Cl)c3)c2)cn1 [Example 125, N-((4-(3-(tert-Butyl)-1,2,4-oxadiazol-5-yl)bicyclo[2.2.2]octan-1-yl)methyl)-3,5-dichloro-N-(3-(2-ethoxypyrimidin-5-yl)phenyl)benzamide]
13 | 4000 | CC(C)(C)c1noc(C23CCC(CN(C(=O)C4CCC(F)(F)CC4)c4cccc(-c5cn[nH]c(=O)c5)c4)(CC2)CC3)n1 [Example 127, N-((4-(3-(tert-Butyl)-1,2,4-oxadiazol-5-yl)bicyclo[2.2.2]octan-1-yl)methyl)-4,4-difluoro-N-(3-(6-oxo-1,6-dihydropyridazin-4-yl)phenyl)cyclohexane-1-carboxamide]
14 | 4000 | CC(C)(F)c1nc(C23CCC(CN(C(=O)C4CCOCC4)c4cccc(-c5cn[nH]c(=O)c5)c4)(CC2)CC3)no1 [Example 128, N-((4-(5-(2-fluoropropan-2-yl)-1,2,4-oxadiazol-3-yl)bicyclo[2.2.2]octan-1-yl)methyl)-N-(3-(6-oxo-1,6-dihydropyridazin-4-yl)phenyl)tetrahydro-2H-pyran-4-carboxamide]
15 | 1480 | CC(F)(F)c1nc(C23CCC(CN(C(=O)C4CCOCC4)c4cccc(-c5cn[nH]c(=O)c5)c4)(CC2)CC3)no1 [Example 129, N-((4-(5-(1,1-difluoroethyl)-1,2,4-oxadiazol-3-yl)bicyclo[2.2.2]octan-1-yl)methyl)-N-(3-(6-oxo-1,6-dihydropyridazin-4-yl)phenyl)tetrahydro-2H-pyran-4-carboxamide]
16 | 205 | CC(F)(F)c1nc(C23CCC(CN(C(=O)C4CCC(F)(F)CC4)c4cccc(-c5ccc(S(C)(=O)=O)cc5)c4)(CC2)CC3)no1 [Example 130, N-((4-(5-(1,1-difluoroethyl)-1,2,4-oxadiazol-3-yl)bicyclo[2.2.2]octan-1-yl)methyl)-4,4-difluoro-N-(4′-(methylsulfonyl)-[1,1′-biphenyl]-3-yl)cyclohexane-1-carboxamide]
17 | 1930 | Cn1nc(C2CC2)cc1C12CCC(CN(C(=O)C3CCS(=O)(=O)CC3)c3cccc(-c4cc(C5CC5)on4)c3)(CC1)CC2 [Example 131, N-((4-(3-cyclopropyl-1-methyl-1H-pyrazol-5-yl)bicyclo[2.2.2]octan-1-yl)methyl)-N-(3-(5-cyclopropylisoxazol-3-yl)phenyl)tetrahydro-2H-thiopyran-4-carboxamide 1,1-dioxide]
18 | 227 | Cn1nc(C2CC2)cc1C12CCC(CN(C(=O)C3CCOCC3)c3cccc(-c4cc(C5CC5)on4)c3)(CC1)CC2 [Example 132, N-((4-(3-cyclopropyl-1-methyl-1H-pyrazol-5-yl)bicyclo[2.2.2]octan-1-yl)methyl)-N-(3-(5-cyclopropylisoxazol-3-yl)phenyl)tetrahydro-2H-pyran-4-carboxamide]
19 | 2000 | CN1CCC(C(=O)N(CC23CCC(c4cc(C5CC5)nn4C)(CC2)CC3)c2cccc(-c3cc(C4CC4)on3)c2)CC1 [Example 133, N-((4-(3-cyclopropyl-1-methyl-1H-pyrazol-5-yl)bicyclo[2.2.2]octan-1-yl)methyl)-N-(3-(5-cyclopropylisoxazol-3-yl)phenyl)-1-methylpiperidine-4-carboxamide]
20 | 511 | Cn1nc(C2CC2)cc1C12CCC(CN(C(=O)C3CCOCC3)c3cccc(-c4ccc(S(C)(=O)=O)cc4)c3)(CC1)CC2 [Example 134, N-((4-(3-cyclopropyl-1-methyl-1H-pyrazol-5-yl)bicyclo[2.2.2]octan-1-yl)methyl)-N-(4′-(methylsulfonyl)-[1,1′-biphenyl]-3-yl)tetrahydro-2H-pyran-4-carboxamide]
21 | 4000 | Cn1nc(C2CC2)cc1C12CCC(CN(C(=O)C3CCS(=O)(=O)CC3)c3cccc(-c4ccc(S(C)(=O)=O)cc4)c3)(CC1)CC2 [Example 135, N-((4-(3-cyclopropyl-1-methyl-1H-pyrazol-5-yl)bicyclo[2.2.2]octan-1-yl)methyl)-N-(4′-(methylsulfonyl)-[1,1′-biphenyl]-3-yl)tetrahydro-2H-thiopyran-4-carboxamide 1,1-dioxide]
22 | 4000 | CN1CCC(C(=O)N(CC23CCC(c4cc(C5CC5)nn4C)(CC2)CC3)c2cccc(-c3ccc(S(C)(=O)=O)cc3)c2)CC1 [Example 136, N-((4-(3-cyclopropyl-1-methyl-1H-pyrazol-5-yl)bicyclo[2.2.2]octan-1-yl)methyl)-1-methyl-N-(4′-(methylsulfonyl)-[1,1′-biphenyl]-3-yl)piperidine-4-carboxamide]
23 | 449 | Cc1nc2ccc(-c3cccc(N(CC45CCC(c6cc(C7CC7)nn6C)(CC4)CC5)C(=O)C4CCC(F)(F)CC4)c3)cc2s1 [Example 137, N-((4-(3-cyclopropyl-1-methyl-1H-pyrazol-5-yl)bicyclo[2.2.2]octan-1-yl)methyl)-4,4-difluoro-N-(3-(2-methylbenzo[d]thiazol-6-yl)phenyl)cyclohexane-1-carboxamide]
